From ChEMBL document CHEMBL1201861, “Genomics of Drug Sensitity in Cancer screening data, Wellcome Trust Sanger Institute”

Tests used:
[1] = system: DG-75; experiment: cells; format: functional, cell-based; settings: Homo sapiens;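 also: growth inhibition of DG-75 cells, read out with a cell viability assay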
Description: SANGER: Inhibition of human DG-75 cell growth in a cell viability assay.

[2] = system: DMS-153; experiment: cells; format: functional, cell-based; settings: Homo sapiens
Description: SANGER: Inhibition of human DMS-153 cell growth in a cell viability assay.

[3] = system: Daudi; experiment: cells; format: functional, cell-based; settings: Homo sapiens;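 also: growth inhibition of Daudi cells, read out by a viability assay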
Description: SANGER: Inhibition of human Daudi cell growth in a cell viability assay.

[4] = system: EB-3; experiment: cells; format: functional, cell-based; settings: Homo sapiens;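 also: human EB-3 cells, growth inhibition read out via a cell viability assay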
Description: SANGER: Inhibition of human EB-3 cell growth in a cell viability assay.

[5] = system: EB2; experiment: cells; format: functional, cell-based; settings: Homo sapiens;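 also: growth inhibition of EB2 cells, read out with a cell viability assay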
Description: SANGER: Inhibition of human EB2 cell growth in a cell viability assay.

[6] = system: ECC4; experiment: cells; format: functional, cell-based; settings: Homo sapiens;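 also: growth inhibition of ECC4 cells, read out with a cell viability assay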
Description: SANGER: Inhibition of human ECC4 cell growth in a cell viability assay.

[7] = system: EHEB; experiment: cells; format: functional, cell-based; settings: Homo sapiens;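 also: growth inhibition of human EHEB cells, read out with a cell viability assay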
Description: SANGER: Inhibition of human EHEB cell growth in a cell viability assay.

[8] = system: G-361; experiment: cells; format: functional, cell-based, Homo sapiens; settings: Homo sapiens, G-361
[9] = system: HCC1599; experiment: cells; format: functional, cell-based; settings: Homo sapiens;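 also: growth inhibition of HCC1599 cells, read out in a cell viability assay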
Description: SANGER: Inhibition of human HCC1599 cell growth in a cell viability assay.

[10] = system: HCT-15; experiment: cells; format: functional, cell-based, Homo sapiens; settings: Homo sapiens, HCT-15;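 also: cell viability readout, IC50 reflecting suppression of HCT-15 cell growth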
Description: SANGER: Inhibition of human HCT-15 cell growth in a cell viability assay.

[11] = system: IM-9; experiment: SANGER: Inhibition of human IM-9 cell growth in a cell viability assay.; format: functional, cell-based
[12] = system: IMR-5; experiment: cells; format: functional, cell-based; settings: Homo sapiens;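 also: growth inhibition of human IMR-5 cells, read out with a cell viability assay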
Description: SANGER: Inhibition of human IMR-5 cell growth in a cell viability assay.

[13] = system: IST-SL2; experiment: cells; format: functional, cell-based; settings: Homo sapiens;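 also: growth inhibition of human IST-SL2 cells, read out by a cell viability assay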
Description: SANGER: Inhibition of human IST-SL2 cell growth in a cell viability assay.

[14] = system: K052; experiment: cells; format: functional, cell-based; settings: Homo sapiens;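 also: Read-out from a cell viability assay, IC50 reflecting suppression of K052 cell growth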
Description: SANGER: Inhibition of human K052 cell growth in a cell viability assay.

[15] = system: KMS-12-PE; experiment: cells; format: functional, cell-based; settings: Homo sapiens;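 also: growth inhibition of human KMS-12-PE cells, measured with a cell viability assay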
Description: SANGER: Inhibition of human KMS-12-PE cell growth in a cell viability assay.

[16] = system: LB647-SCLC; experiment: cells; format: functional, cell-based; settings: Homo sapiens;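 also: cell growth inhibition, read out by a viability assay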
Description: SANGER: Inhibition of human LB647-SCLC cell growth in a cell viability assay.

[17] = system: LC-1F; experiment: cells; format: functional, cell-based; settings: Homo sapiens;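 also: growth inhibition of human LC-1F cells, read out with a cell viability assay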
Description: SANGER: Inhibition of human LC-1F cell growth in a cell viability assay.

[18] = system: LP-1; experiment: cells; format: functional, cell-based; settings: Homo sapiens;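 also: growth inhibition of human LP-1 cells, with the read-out taken from a cell viability assay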
Description: SANGER: Inhibition of human LP-1 cell growth in a cell viability assay.

[19] = system: MC-CAR; experiment: cells; format: functional, cell-based; settings: Homo sapiens;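 also: growth inhibition of the human MC-CAR cell line, read out by a cell viability assay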
Description: SANGER: Inhibition of human MC-CAR cell growth in a cell viability assay.

[20] = system: MDA-MB-134-VI; experiment: cells; format: functional, cell-based; settings: Homo sapiens
Description: SANGER: Inhibition of human MDA-MB-134-VI cell growth in a cell viability assay.

[21] = system: MEL-JUSO; experiment: cells; format: functional, cell-based, Homo sapiens; settings: Homo sapiens, MEL-JUSO;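 also: growth inhibition of human MEL-JUSO cells, read out with a cell viability assay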
Description: SANGER: Inhibition of human MEL-JUSO cell growth in a cell viability assay.

[22] = system: NALM-6; experiment: cells; format: functional, cell-based; settings: Homo sapiens;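 also: growth inhibition of NALM-6 cells, read out with a cell viability assay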
Description: SANGER: Inhibition of human NALM-6 cell growth in a cell viability assay.

[23] = system: NCCIT; experiment: SANGER: Inhibition of human NCCIT cell growth in a cell viability assay.; format: functional, cell-based
[24] = system: NCI-H1417; experiment: cells; format: functional, cell-based; settings: Homo sapiens;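 also: human NCI-H1417 cells, growth inhibition determined with a cell viability readout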
Description: SANGER: Inhibition of human NCI-H1417 cell growth in a cell viability assay.

[25] = system: NCI-H1694; experiment: cells; format: functional, cell-based; settings: Homo sapiens;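 also: cell viability assay measuring inhibition of growth in human NCI-H1694 cells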
Description: SANGER: Inhibition of human NCI-H1694 cell growth in a cell viability assay.

[26] = system: NCI-H1703; experiment: cells; format: functional, cell-based, Homo sapiens; settings: Homo sapiens, NCI-H1703;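 also: growth inhibition of NCI-H1703 cells, read out via a cell viability assay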
Description: SANGER: Inhibition of human NCI-H1703 cell growth in a cell viability assay.

[27] = system: NCI-H187; experiment: cells; format: functional, cell-based; settings: Homo sapiens;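 also: growth inhibition of NCI-H187 cells, read out as cell viability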
Description: SANGER: Inhibition of human NCI-H187 cell growth in a cell viability assay.

[28] = system: NCI-H1882; experiment: cells; format: functional, cell-based; settings: Homo sapiens
Description: SANGER: Inhibition of human NCI-H1882 cell growth in a cell viability assay.

[29] = system: NCI-H2009; experiment: cells; format: functional, cell-based, Homo sapiens; settings: Homo sapiens, NCI-H2009;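 also: cell viability assay measuring inhibition of NCI-H2009 cell growth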
Description: SANGER: Inhibition of human NCI-H2009 cell growth in a cell viability assay.

[30] = system: NCI-H2141; experiment: cells; format: functional, cell-based; settings: Homo sapiens;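 also: growth inhibition of human NCI-H2141 cells, read out with a cell viability assay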
Description: SANGER: Inhibition of human NCI-H2141 cell growth in a cell viability assay.

[31] = system: NCI-H2171; experiment: cells; format: functional, cell-based; settings: Homo sapiens;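 also: growth inhibition of human NCI-H2171 cells, read out by a cell viability assay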
Description: SANGER: Inhibition of human NCI-H2171 cell growth in a cell viability assay.

[32] = system: NCI-H2227; experiment: cells; format: functional, cell-based; settings: Homo sapiens;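 also: growth inhibition of the human cell line, read out with a cell viability assay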
Description: SANGER: Inhibition of human NCI-H2227 cell growth in a cell viability assay.

[33] = system: NCI-H322M; experiment: cells; format: functional, cell-based; settings: Homo sapiens;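 also: cell viability assay measuring inhibition of growth of human NCI-H322M cells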
Description: SANGER: Inhibition of human NCI-H322M cell growth in a cell viability assay.

[34] = system: NCI-H345; experiment: cells; format: functional, cell-based; settings: Homo sapiens;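 also: growth inhibition of NCI-H345 cells measured with a cell viability assay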
Description: SANGER: Inhibition of human NCI-H345 cell growth in a cell viability assay.

[35] = system: NCI-H460; experiment: cells; format: functional, cell-based, Homo sapiens; settings: Homo sapiens, NCI-H460;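 also: cell viability assay scoring growth inhibition of human NCI-H460 cells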
Description: SANGER: Inhibition of human NCI-H460 cell growth in a cell viability assay.

[36] = system: NCI-H522; experiment: cells; format: functional, cell-based, Homo sapiens; settings: Homo sapiens, NCI-H522;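 also: cell viability assay measuring growth inhibition of human NCI-H522 cells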
Description: SANGER: Inhibition of human NCI-H522 cell growth in a cell viability assay.

[37] = system: NCI-H64; experiment: cells; format: functional, cell-based; settings: Homo sapiens;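 also: growth inhibition of NCI-H64 cells, read out with a cell viability assay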
Description: SANGER: Inhibition of human NCI-H64 cell growth in a cell viability assay.

[38] = system: NCI-H719; experiment: cells; format: functional, cell-based; settings: Homo sapiens;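 also: growth inhibition of the cultured cell line, read out with a viability assay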
Description: SANGER: Inhibition of human NCI-H719 cell growth in a cell viability assay.

[39] = system: NCI-H748; experiment: cells; format: functional, cell-based; settings: Homo sapiens;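 also: growth inhibition of NCI-H748 cells, measured by a cell viability assay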
Description: SANGER: Inhibition of human NCI-H748 cell growth in a cell viability assay.

[40] = system: REH; experiment: cells; format: functional, cell-based; settings: Homo sapiens;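 also: growth inhibition of REH cells determined with a cell viability read-out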
Description: SANGER: Inhibition of human REH cell growth in a cell viability assay.

[41] = system: RPMI-6666; experiment: cells; format: functional, cell-based; settings: Homo sapiens
Description: SANGER: Inhibition of human RPMI-6666 cell growth in a cell viability assay.

[42] = system: SCLC-21H; experiment: cells; format: functional, cell-based; settings: Homo sapiens;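 also: growth inhibition of cultured human SCLC-21H cells, read out with a cell viability assay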
Description: SANGER: Inhibition of human SCLC-21H cell growth in a cell viability assay.

[43] = system: SJRH30; experiment: cells; format: functional, cell-based; settings: Homo sapiens;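 also: growth inhibition of human SJRH30 cells, read out with a cell viability assay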
Description: SANGER: Inhibition of human SJRH30 cell growth in a cell viability assay.

[44] = system: SK-MM-2; experiment: cells; format: functional, cell-based; settings: Homo sapiens;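 also: growth inhibition of human SK-MM-2 cells, read out with a cell viability assay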
Description: SANGER: Inhibition of human SK-MM-2 cell growth in a cell viability assay.

[45] = system: SR; experiment: cells; format: functional, cell-based; settings: Homo sapiens
Description: SANGER: Inhibition of human SR cell growth in a cell viability assay.

[46] = system: ST486; experiment: SANGER: Inhibition of human ST486 cell growth in a cell viability assay.; format: functional, cell-based
[47] = system: ARH-77; experiment: cells; format: functional, cell-based; settings: Homo sapiens;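 also: growth inhibition of ARH-77 cells, read out by a cell viability assay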
Description: SANGER: Inhibition of human ARH-77 cell growth in a cell viability assay.

[48] = system: BC1 cell line; experiment: SANGER: Inhibition of human BC-1 cell growth in a cell viability assay.; format: functional, cell-based
[49] = system: CAL-148; experiment: cells; format: functional, cell-based; settings: Homo sapiens
Description: SANGER: Inhibition of human CAL-148 cell growth in a cell viability assay.

[50] = system: THP-1; experiment: cells; format: functional, cell-based; settings: Homo sapiens;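 also: growth inhibition of THP-1 cells, read out via a cell viability assay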
Description: SANGER: Inhibition of human THP-1 cell growth in a cell viability assay.

[51] = system: TUR; experiment: cells; format: functional, cell-based; settings: Homo sapiens;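 also: growth inhibition of human TUR cells, read out with a cell viability assay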
Description: SANGER: Inhibition of human TUR cell growth in a cell viability assay.

SMILES: COc1cc([C@@H]2c3cc4c(cc3[C@@H](O[C@@H]3O[C@@H]5CO[C@@H](C)O[C@H]5[C@H](O)[C@H]3O)[C@H]3COC(=O)[C@H]23)OCO4)cc(OC)c1O [ETOPOSIDE]
- IC50 [1]: > 16000 nM
- IC50 [2]: > 16000 nM
- IC50 [3]: 5360 nM
- IC50 [4]: > 16000 nM
- IC50 [5]: 391 nM
- IC50 [6]: > 16000 nM
- IC50 [7]: > 16000 nM
- IC50 [8]: 834 nM
- IC50 [9]: 616 nM
- IC50 [10]: 7870 nM
- IC50 [11]: > 16000 nM
- IC50 [12]: 469 nM
- IC50 [13]: 850 nM
- IC50 [14]: > 16000 nM
- IC50 [15]: 9910 nM
- IC50 [16]: 2000 nM
- IC50 [17]: > 16000 nM
- IC50 [18]: > 16000 nM
- IC50 [19]: 580 nM
- IC50 [20]: > 16000 nM
- IC50 [21]: 657 nM
- IC50 [22]: 206 nM
- IC50 [23]: > 16000 nM
- IC50 [24]: 4610 nM
- IC50 [25]: 1370 nM
- IC50 [26]: 1300 nM
- IC50 [27]: 674 nM
- IC50 [28]: 2680 nM
- IC50 [29]: 697 nM
- IC50 [30]: 8520 nM
- IC50 [31]: > 16000 nM
- IC50 [32]: > 16000 nM
- IC50 [33]: > 16000 nM
- IC50 [34]: > 16000 nM
- IC50 [35]: 236 nM
- IC50 [36]: 3360 nM
- IC50 [37]: 4000 nM
- IC50 [38]: > 16000 nM
- IC50 [39]: 871 nM
- IC50 [40]: 224 nM
- IC50 [41]: 1030 nM
- IC50 [42]: > 16000 nM
- IC50 [43]: 4720 nM
- IC50 [44]: 9680 nM
- IC50 [45]: 443 nM
- IC50 [46]: 2250 nM
- IC50 [47]: 2190 nM
- IC50 [48]: 545 nM
- IC50 [49]: 625 nM
- IC50 [50]: > 16000 nM
- IC50 [51]: 722 nM

SMILES: C[C@]1(O)C[C@@H](c2nc(-c3ccc4ccc(-c5ccccc5)nc4c3)c3c(N)nccn32)C1 [LINSITINIB]
- IC50 [1]: > 2560 nM
- IC50 [2]: > 2560 nM
- IC50 [3]: > 2560 nM
- IC50 [4]: > 2560 nM
- IC50 [5]: > 2560 nM
- IC50 [6]: > 2560 nM
- IC50 [7]: > 2560 nM
- IC50 [8]: > 2560 nM
- IC50 [9]: > 2560 nM
- IC50 [10]: > 2560 nM
- IC50 [11]: > 2560 nM
- IC50 [12]: > 2560 nM
- IC50 [13]: > 2560 nM
- IC50 [14]: > 2560 nM
- IC50 [15]: > 2560 nM
- IC50 [16]: 1770 nM
- IC50 [17]: > 2560 nM
- IC50 [18]: 2260 nM
- IC50 [19]: > 2560 nM
- IC50 [20]: > 2560 nM
- IC50 [21]: 1160 nM
- IC50 [22]: > 2560 nM
- IC50 [23]: > 2560 nM
- IC50 [24]: > 2560 nM
- IC50 [25]: > 2560 nM
- IC50 [26]: > 2560 nM
- IC50 [27]: > 2560 nM
- IC50 [28]: > 2560 nM
- IC50 [29]: > 2560 nM
- IC50 [30]: > 2560 nM
- IC50 [31]: 1780 nM
- IC50 [32]: > 2560 nM
- IC50 [33]: > 2560 nM
- IC50 [34]: > 2560 nM
- IC50 [35]: > 2560 nM
- IC50 [36]: > 2560 nM
- IC50 [37]: > 2560 nM
- IC50 [38]: > 2560 nM
- IC50 [39]: > 2560 nM
- IC50 [40]: > 2560 nM
- IC50 [41]: > 2560 nM
- IC50 [42]: > 2560 nM
- IC50 [43]: 508 nM
- IC50 [44]: 655 nM
- IC50 [45]: > 2560 nM
- IC50 [46]: > 2560 nM
- IC50 [47]: > 2560 nM
- IC50 [48]: > 2560 nM
- IC50 [49]: > 2560 nM
- IC50 [50]: > 2560 nM
- IC50 [51]: > 2560 nM

SMILES: C=CCc1cccc(/C=N/NC(=O)CN2CCN(Cc3ccccc3)CC2)c1O [PAC-1]
- IC50 [1]: > 2560 nM
- IC50 [2]: > 2560 nM
- IC50 [3]: 947 nM
- IC50 [4]: > 2560 nM
- IC50 [5]: > 2560 nM
- IC50 [6]: > 2560 nM
- IC50 [7]: > 2560 nM
- IC50 [8]: 1190 nM
- IC50 [9]: > 2560 nM
- IC50 [10]: 1580 nM
- IC50 [11]: > 2560 nM
- IC50 [12]: > 2560 nM
- IC50 [13]: > 2560 nM
- IC50 [14]: > 2560 nM
- IC50 [15]: > 2560 nM
- IC50 [16]: > 2560 nM
- IC50 [17]: > 2560 nM
- IC50 [18]: > 2560 nM
- IC50 [19]: 1530 nM
- IC50 [20]: > 2560 nM
- IC50 [21]: > 2560 nM
- IC50 [22]: 703 nM
- IC50 [23]: > 2560 nM
- IC50 [24]: > 2560 nM
- IC50 [25]: > 2560 nM
- IC50 [26]: > 2560 nM
- IC50 [27]: > 2560 nM
- IC50 [28]: > 2560 nM
- IC50 [29]: > 2560 nM
- IC50 [30]: > 2560 nM
- IC50 [31]: > 2560 nM
- IC50 [32]: > 2560 nM
- IC50 [33]: > 2560 nM
- IC50 [34]: > 2560 nM
- IC50 [35]: > 2560 nM
- IC50 [36]: > 2560 nM
- IC50 [37]: > 2560 nM
- IC50 [38]: > 2560 nM
- IC50 [39]: > 2560 nM
- IC50 [40]: 944 nM
- IC50 [41]: 1040 nM
- IC50 [42]: > 2560 nM
- IC50 [43]: > 2560 nM
- IC50 [44]: > 2560 nM
- IC50 [45]: > 2560 nM
- IC50 [46]: 967 nM
- IC50 [47]: > 2560 nM
- IC50 [48]: 1100 nM
- IC50 [49]: > 2560 nM
- IC50 [50]: > 2560 nM
- IC50 [51]: > 2560 nM
